How the values were obtained:
Assay type in all cases: cell-based
MTS = settings: human, monocytes; read-out: TC (Tolerated Concentration), MTS
LTB4 = LTB4 production by purified human monocytes; set-up: key: NE: No effect; INHIB: Inhibition; STIM: Stimulation; IC40: 40% Inhibitory Concentration; EC50: 50% Effective Concentration; TC: Tolerated Concentration; IA: Interferes with Assay
Protocol: This assay measures the ability of test compounds to modulate the amount of LTB4 produced by the oxygenation of arachidonic acid by 5-lipooxygenase produced by purified human monocytes. Compounds are tested for their ability to downregulate the secretion of LTB4 from activated monocytes, or upregulate secretion of LTB4 from unstimulated monocytes. Test compounds are incubated for ninety minutes with purified human monocytes at four dilutions over a range of three log10 concentrations. Where appropriate, zymosan is used to stimulate the monocytes.
The level of LTB4 in the resultant supernatants is quantitated by immunoassay performed in a 96 well format. LTB4 levels modulated by unknown compounds are determined by interpolation from a standard curve. All compounds are tested in duplicate with controls and standards.

superoxide anion = test: Superoxide anion release from purified human monocytes; set-up: key: NE: No effect; INHIB: Inhibition; STIM: Stimulation; IC40: 40% Inhibitory Concentration; EC50: 50% Effective Concentration; TC: Tolerated Concentration; IA: Interferes with Assay; settings: zymosan
Protocol: (§1) This assay measures the ability of the test compound to modulate the ability of purified human monocytes to release superoxide anions in response to a zymosan. Compounds are tested at four dilutions over a range of three log10 concentrations. Monocyte-compound cultures are treated with zymosan to stimulate anion production. The amount of superoxide anion produced is determined by the culture's ability to reduce cytochrome C, as measured colorimetrically. The assay is carried out in a 96-well format in triplicate and results are expressed in relation to baseline unstimulated and maximum controls. Appropriate reference controls are run with each assay.
as §1, with “minimum” for “maximum”

phospholipase A2 = test: Cellular phospholipase A2 activity in human monocytes; set-up: key: NE: No effect; INHIB: Inhibition; STIM: Stimulation; IC40: 40% Inhibitory Concentration; EC50: 50% Effective Concentration; TC: Tolerated Concentration; IA: Interferes with Assay
Protocol: This assay measures the ability of test compounds to modulate the activity of the cellular phospholipase A2 in human monocytes. Compounds are tested for their ability to inhibit stimulate phospholipase A2 activity or activate basal activity in unstimulated monocytes. Test compounds are incubated for ninety minutes with purified human monocytes at four dilutions over a range of three log10 concentrations. Where appropriate, zymosan is used to stimulate the monocytes.
Monocytes with the arachidonyl moiety of phospholipids radiolabelled are utilized in a 96 well format. Percent release of radiolabelled fatty acid into the extracellular medium is quantified by liquid scintillation counting. All compounds are tested in duplicate with controls and standards.

TNFα = TNFα production from purified human monocytes; set-up: key to EFFECT on TNFα: NE: No effect; INHIB: Inhibition; STIM: Stimulation; IC40: 40% Inhibitory Concentration; EC50: 50% Effective Concentration; TC: Tolerated Concentration; IA: Interferes with Assay
Protocol: (§2) This assay determines the effect of test compounds on the production of TNFα from purified human monocytes. Compounds are tested for their ability to downregulate the production of TNFα in activated monocytes, or upregulate secretion of TNFα in unstimulated monocytes. Test compounds are incubated for sixteen hours with purified human monocytes at four dilutions over a range of three log10 concentrations. Where appropriate, lipopolysaccharide (LPS) is used to stimulate the monocytes.
The level of TNFα in the resultant supernatants is quantitated in a solid phase Enzyme-linked Immunoassay (EIA) performed in a 96 well format. TNFα present in the samples is captured by a specific monoclonal antibody immobilized on the well, and detected with an anti-TNFα polyclonal antibody conjugated to horse radish peroxidase, followed by an appropriate substrate. The levels of TNFα are determined by interpolation of the resultant color change in the substrate from a standard curve. All supernatants are tested in duplicate with controls and standards.
as §2, with “production of TNF from purified” for “production of TNFα from purified”, “incubated for sixteeen hours with” for “incubated for sixteen hours with”

tissue factor (TF) = test: Membrane bound tissue factor production from purified human monocytes; set-up: key to EFFECT on TISSUE FACTOR: NE: No effect; INHIB: Inhibition; STIM: Stimulation; IC40: 40% Inhibitory Concentration; EC50: 50% Effective Concentration; TC: Tolerated Concentration; IA: Interferes with Assay
Protocol: This assay determines the effect of test compounds on the production of membrane bound tissue factor (TF) from purified human monocytes. Compounds are tested for their ability to downregulate the production of TF in activated monocytes, or upregulate production of TF in unstimulated monocytes. Test compounds are incubated for sixteen hours with purified human monocytes at four dilutions over a range of three log10 concentrations. Where appropriate, lipopolysaccharide (LPS) is used to stimulate the monocytes.
After the above period of incubation, medium is aspirated from the monocytes, and the cells are solubilized in Triton-X 100. The level of TF in the soluble fraction is quantitated in a solid phase Enzyme-linked Immunoassay (EIA) performed in a 96 well format. TF present in the samples is captured by a specific monoclonal antibody immobilized on the well, and detected using a biotinylated antibody fragment specific for bound TF, followed by streptavidin conjugated to horseradish peroxidase and an appropriate substrate. The levels of TF are determined by interpolation of the resultant color change in the substrate from a standard curve. All supernatants are tested in duplicate with controls and standards.

[1] = Homo sapiens, Monocyte, STIMULATED, STIM

In the case of `CCCCCCCCCCCCCC/C=C\CC[C@@H]1OC(=O)C(O)=C1O` [(S)-3,4-Dihydroxy-5-[(Z)-3-octadecenyl]-2(5H)-furanone], the MNTC (MTS) is reported as 50 µM, the “EFFECT on LTB4” value (LTB4; STIMULATED) is reported as “NE” and the “EFFECT on LTB4” value (LTB4; UNSTIMULATED) is reported as “NE”. For the same compound, the “EFFECT on SUPEROXIDE” value (superoxide anion) was “IA”, the “EFFECT on PLA2” value (phospholipase A2; STIMULATED) was “NE” and the “EFFECT on PLA2” value (phospholipase A2; UNSTIMULATED) was “NE”. For the same compound, the EC50 (TNFα; [1]) was 38 µM, the “EFFECT on TNFα” value (TNFα; STIMULATED) was “STIM” and the “EFFECT on TNFα” value (TNFα; UNSTIMULATED) was “NE”. The EC50 (tissue factor (TF); [1]) was 35 µM, the “EFFECT on TISSUE FACTOR” value (tissue factor (TF); STIMULATED) was “STIM” and the “EFFECT on TISSUE FACTOR” value (tissue factor (TF); UNSTIMULATED) was “NE”.
